Three molecules from US8476062B2, “Biosensor method and system based on feature vector extraction” (priority 2005, dated 2013) can be followed below.

The test system of test [1] is Clinch River samples (naturally-occurring photosynthetic organisms). Description: Toxic agent detection by fluorescence induction, Clinch River samples. The format is cell-based. How it is done:
(§1) Fluorescence induction data set of normal primary-source drinking water samples as well as samples exposed to four different toxic agents at different concentrations were collected. The control and toxic-agent-exposed fluorescence induction data were taken every 5 minutes after the dark adaptation for 15 minutes. • 20 μM DCMU, • 5 mM/10 mM KCN, • 40 μM/60 μM MPt, and • 225 μM Paraquat. Experiment 1—Toxic Agent Detection
(§2) The objective of the first experiment performed was to evaluate the performance of the inventive methodology in detecting the presence of toxic agents. FIGS. 12-23 show the extracted features (including PSII, amplitude statistics, and wavelet coefficient statistical features) of each specific toxic agent as functions of time. The toxic agents were added into the samples at time 0, therefore, the signals with negative time index correspond to the control data and the signals during the positive time period are the agent-exposed data collected from either the Clinch River samples or the lab-grown Chlamydomonas reinhardtii samples. At each time moment, three samples were collected and feature values calculated. The mean and standard deviation of these three values are used to illustrate the performance curve at that time moment. To examine the change of feature values over time, the signal collected at time 0 as reference was chosen and yield at each time moment calculated (feature at time t−feature at time 0)/feature at time 0. The following notations are used to describe these performance curves: • μc(t), σc(t): the mean and the standard deviation of the feature values derived from the three control samples collected at moment t (with a negative time index) • μe(t), σe(t): the mean and the standard deviation of the feature values derived from the three exposure samples collected at moment t (with a positive time index)
(§3) In order to quantitatively evaluate the effectiveness of each feature in differentiating between the control and the exposure signals of different toxic agents, two metrics are introduced: the Fisher criterion and the average confidence level. The Fisher criterion originates from pattern classification (Duda, et al., 2001) where a linear projection is pursued in order to best separate two classes. In this work, the definition of Fisher criterion is used to quantify different performance curves in differentiating between the control and the exposure signals. In general, the Fisher criterion looks for the feature that maximizes the difference between the mean value of feature derived from the control and the exposed signal while minimizing the variance among them, as formulated below: […]
(§4) Table 1 lists the value of the Fisher criterion to evaluate the effect of using different features for agent detection. In both Table 1 and Table 2 “Clinch” refers to Clinch River samples and “Chlamy” to lab-grown Chlamydomonas reinhardtii samples. It can be seen from Table 1 below that the first-order amplitude statistics (mean) gives the best metric evaluation for most of the toxic agents, while the wavelet analysis, the standard deviation and the skewness in amplitude statistics also contribute to the differentiation between control and exposure signals in some cases.

Test [2] has as its system lab-grown Chlamydomonas reinhardtii. Description: Toxic agent detection by fluorescence induction, lab-grown Chlamydomonas reinhardtii samples. The format is cell-based. How it is done:
as §1, §2, §3, §4

Several values for one entry are separate records, joined by “and”; a condition that tells them apart may be missing. Equal values may be shown once. Read-outs that look alike come from different tables or passages of the source.

`CN(C)C(=O)Nc1ccc(Cl)c(Cl)c1` [DCMU, Diuron]: in test [1] (Clinch, 20 μM DCMU), the “Fisher criterion (control vs exposure signals), Amplitude Statistics Kurtosis” value is 71.3140; the “Fisher criterion (control vs exposure signals), Amplitude Statistics Mean” value was 356.4241; the “Fisher criterion (control vs exposure signals), Amplitude Statistics Skewness” value is given as 64.7360; the “Fisher criterion (control vs exposure signals), PSII” value is listed as 62.8073. Also, in test [1] (Clinch, 20 μM DCMU), the “Fisher criterion (control vs exposure signals), Wavelet Coefficient Energy” value is recorded as 93.8024 and the “Fisher criterion (control vs exposure signals), Wavelet Coefficient Mean” value is 37.3350. In addition, in test [2] (Chlamy, 20 μM DCMU), the “Fisher criterion (control vs exposure signals), Amplitude Statistics Kurtosis” value is recorded as 242.9; the “Fisher criterion (control vs exposure signals), Amplitude Statistics Mean” value was 2111.9; the “Fisher criterion (control vs exposure signals), Amplitude Statistics Skewness” value was determined as 835.9; the “Fisher criterion (control vs exposure signals), PSII” value was 63.9. In test [2] (Chlamy, 20 μM DCMU), the “Fisher criterion (control vs exposure signals), Wavelet Coefficient Energy” value is 8.2 and the “Fisher criterion (control vs exposure signals), Wavelet Coefficient Mean” value worked out at 5.3.

Turning to `COP(=S)(OC)Oc1ccc([N+](=O)[O-])cc1` [MPt, methyl parathion], in test [1], the “Fisher criterion (control vs exposure signals), Amplitude Statistics Mean” value was 9.9401 and 5.1574; the “Fisher criterion (control vs exposure signals), Wavelet Coefficient Energy” value was 258.6794 and 159.3636; the “Fisher criterion (control vs exposure signals), Wavelet Coefficient Mean” value was 148.3582 and 75.2339. In test [2], the “Fisher criterion (control vs exposure signals), Amplitude Statistics Mean” value was 15.3435 and 20.3104; the “Fisher criterion (control vs exposure signals), PSII” value is 7.8844 and 11.7760; the “Fisher criterion (control vs exposure signals), Wavelet Coefficient Energy” value was 29.3503 and 29.5307; the “Fisher criterion (control vs exposure signals), Wavelet Coefficient Mean” value is 15.7935 and 22.2547.

As for `C[n+]1ccc(-c2cc[n+](C)cc2)cc1` [Paraquat], in test [1] (Clinch, 225 μM Paraquat), the “Fisher criterion (control vs exposure signals), Amplitude Statistics Kurtosis” value is reported as 13.0980; the “Fisher criterion (control vs exposure signals), Amplitude Statistics Mean” value came out at 0.6992; the “Fisher criterion (control vs exposure signals), Amplitude Statistics Skewness” value was 21.8997; the “Fisher criterion (control vs exposure signals), PSII” value worked out at 40.3550. Also, in test [1] (Clinch, 225 μM Paraquat), the “Fisher criterion (control vs exposure signals), Wavelet Coefficient Energy” value was found to be 121.8164 and the “Fisher criterion (control vs exposure signals), Wavelet Coefficient Mean” value is recorded as 88.1866. Moreover, in test [2] (Chlamy, 225 μM Paraquat), the “Fisher criterion (control vs exposure signals), Amplitude Statistics Kurtosis” value was 0.5380; the “Fisher criterion (control vs exposure signals), Amplitude Statistics Mean” value is 9.2416; the “Fisher criterion (control vs exposure signals), Amplitude Statistics Skewness” value is recorded as 0.1661; the “Fisher criterion (control vs exposure signals), PSII” value was determined as 33.4259. In addition, in test [2] (Chlamy, 225 μM Paraquat), the “Fisher criterion (control vs exposure signals), Wavelet Coefficient Energy” value was determined as 15.7150 and the “Fisher criterion (control vs exposure signals), Wavelet Coefficient Mean” value is on record as 7.4516.
